Assay results from patent US5393751A, “Tricyclic carbapenem compounds” (Takeda Chemical Industries, Ltd., priority 1989, dated 1995).

Key:
Assay in all cases: MIC by agar dilution method
Assay type in all cases: cell-based
E. cloacae IFO 12937 = details: Enterobacter cloacae, IFO12937, 24 h, 10^8 CFU/ml, 37° C. overnight
Experimental: (§1) The minimal inhibitory concentrations [MIC (μg/ml)] of a representative compound of the invention were determined by the following method.
(§2) Method for MIC determination
(§3) The MIC values of the test compound were determined by the agar dilution method. Thus, 1.0 ml aliquots of serial aqueous dilutions of the test compound were put in petri dishes and 9.0 ml aliquots of Trypticase Soy Agar were added and mixed. Those agar plates were respectively smeared with a suspension (about 10^8 CFU/ml) of the test organism and incubated at 37° C. overnight.

S. pyogenes E-14 = details: Streptococcus pyogenes, E14, 24 h, 10^8 CFU/ml, 37° C. overnight
Experimental: as §1, §2, §3

S. mitis America = details: Streptococcus mitis, 24 h, 10^8 CFU/ml, 37° C. overnight
Experimental: as §1, §2, §3

S. aureus 1840 = details: Staphylococcus aureus, 24 h, 10^8 CFU/ml, 37° C. overnight
Experimental: as §1, §2, §3

S. marcescens IFO 12648 = details: Serratia marcescens, IFO12648, 24 h, 10^8 CFU/ml, 37° C. overnight
Experimental: as §1, §2, §3

E. coli NIHJ JC-2 = details: Escherichia coli, NIHJJC2, 24 h, 10^8 CFU/ml, 37° C. overnight
Experimental: as §1, §2, §3

K. pneumoniae DT = details: Klebsiella pneumoniae, 24 h, 10^8 CFU/ml, 37° C. overnight
Experimental: as §1, §2, §3

K. oxytoca TN 1711 = details: Klebsiella oxytoca, TN1711, 24 h, 10^8 CFU/ml, 37° C. overnight
Experimental: as §1, §2, §3

M. morganii IFO 3168 = details: Morganella morganii, IFO3168, 24 h, 10^8 CFU/ml, 37° C. overnight
Experimental: as §1, §2, §3

S. aureus 308A-1 = details: Staphylococcus aureus, 308A1, 24 h, 10^8 CFU/ml, 37° C. overnight
Experimental: as §1, §2, §3

E. coli NIHJ O-111 = details: Escherichia coli, NIHJO111, 24 h, 10^8 CFU/ml, 37° C. overnight
Experimental: as §1, §2, §3

E. cloacae TN 583 = details: Enterobacter cloacae, TN583, 24 h, 10^8 CFU/ml, 37° C. overnight
Experimental: as §1, §2, §3

P. vulgaris IFO 3988 = details: Proteus vulgaris, IFO3988, 24 h, 10^8 CFU/ml, 37° C. overnight
Experimental: as §1, §2, §3

S. aureus FDA 209P = details: Staphylococcus aureus, FDA209P, 24 h, 10^8 CFU/ml, 37° C. overnight
Experimental: as §1, §2, §3

S. pneumoniae Type I = details: Streptococcus pneumoniae, 24 h, 10^8 CFU/ml, 37° C. overnight
Experimental: as §1, §2, §3

E. coli NIHJ T-7 = details: Escherichia coli, NIHJT7, 24 h, 10^8 CFU/ml, 37° C. overnight
Experimental: as §1, §2, §3

C. diphtheriae Tronto = details: Corynebacterium diphtheriae, 24 h
Experimental: as §1, §2, §3

P. mirabilis IFO 3849 = details: Proteus mirabilis, IFO3849, 24 h, 10^8 CFU/ml, 37° C. overnight
Experimental: as §1, §2, §3

C. freundii IFO 12681 = details: Citrobacter freundii, IFO12681, 24 h, 10^8 CFU/ml, 37° C. overnight
Experimental: as §1, §2, §3

S. pyogenes S-8 = details: Streptococcus pyogenes, S8, 24 h, 10^8 CFU/ml, 37° C. overnight
Experimental: as §1, §2, §3

C. freundii TN 474 = details: Citrobacter freundii, TN474, 24 h, 10^8 CFU/ml, 37° C. overnight
Experimental: as §1, §2, §3

Structure (SMILES): C[C@@H](O)[C@H]1C(=O)N2C(C(=O)[O-])=C3SCCCC3[C@H]12.[Na+] (mixture of isomers) [Example 3, Sodium (5S,6S,7RS)-5-[(R)-1-hydroxyethyl]-4-oxo-3-aza-11-thiatricyclo[5.4.0.0^3,6]undec-1-ene-2-carboxylate]
- MIC (E. cloacae IFO 12937): 0.78 µg/mL
- MIC (S. pyogenes E-14): 0.78 µg/mL
- MIC (S. mitis America): 0.78 µg/mL
- MIC (S. aureus 1840): 1.56 µg/mL
- MIC (S. marcescens IFO 12648): 1.56 µg/mL
- MIC (E. coli NIHJ JC-2): 0.2 µg/mL
- MIC (K. pneumoniae DT): 0.39 µg/mL
- MIC (K. oxytoca TN 1711): 0.39 µg/mL
- MIC (M. morganii IFO 3168): 3.13 µg/mL
- MIC (S. aureus 308A-1): 0.78 µg/mL
- MIC (E. coli NIHJ O-111): 0.2 µg/mL
- MIC (E. cloacae TN 583): 0.78 µg/mL
- MIC (P. vulgaris IFO 3988): 3.13 µg/mL
- MIC (S. aureus FDA 209P): 0.78 µg/mL
- MIC (S. pneumoniae Type I): 0.39 µg/mL
- MIC (E. coli NIHJ T-7): 0.2 µg/mL
- MIC (C. diphtheriae Tronto): < 0.1 µg/mL
- MIC (P. mirabilis IFO 3849): 1.56 µg/mL
- MIC (C. freundii IFO 12681): 0.39 µg/mL
- MIC (S. pyogenes S-8): 0.2 µg/mL
- MIC (C. freundii TN 474): 1.56 µg/mL
